Experimental data as given in US20130053430A1, “MODULATION OF CETP EXPRESSION” (Isis Pharmaceuticals, Inc., priority 2010, published 2013).
e = 2'-O-(2-methoxyethyl) (MOE); d = 2'-deoxy (DNA)

Key:
human CETP mRNA = assay: Dose-dependent antisense inhibition of human CETP in SW872 liposarcoma cells (Example 2); assay type: cell-based; details: Lipofectin, ~16 hours (Example 2)
Experimental: Cells were plated at a density of 50,000 cells per well in a 24-well plate and transfected using Lipofectin reagent with 50 nM, 150 nM, and 300 nM concentrations of each antisense oligonucleotide. After approximately 16 hours, RNA was isolated from the cells and CETP mRNA levels were measured by quantitative real-time PCR. CETP mRNA levels were normalized to total RNA content, as measured by the house-keeping gene, GAPDH mRNA levels. Results are presented in Table 4 as percent inhibition of CETP, relative to untreated control cells.

[1] = mouse, in vivo, sc, 25 mg/kg
From the text: The saline-injected group served as the control group to which oligonucleotide-treated groups were compared. […] This group served a negative control for the effects of the antisense oligonucleotides against CETP. The groups are further described in Table 27, and are designated letters A-F, by which they will be referred from henceforth.

CETP mRNA = assay: Liver CETP mRNA in huCETP transgenic mice on Western diet (Example 8); assay type: in vivo, human; details: 25 mg/kg s.c. twice per week for 2 weeks, relative to PBS control
Experimental: Male transgenic mice were maintained on a 12-hour light/dark cycle and were fed ad libitum the Western diet (TD88137; 42% cal from fat, 0.2% cholesterol; Harlan Laboratories, Indianapolis, Ind.). Animals were acclimated for at least 7 days in the research facility before initiation of the experiment and were maintained on this diet throughout the study period. Antisense oligonucleotides (ASOs) were prepared in phosphate buffered saline (PBS) and sterilized by filtering through a 0.2 micron filter. Oligonucleotides were dissolved in 0.9% PBS for injection.
(§1) The mice were divided into two groups of 4-6 mice each.
Twenty four hours after the final dose, the animals were sacrificed and liver tissue was isolated.
Liver RNA was isolated for real-time PCR analysis of CETP. The primer probe set hCETP was used to measure CETP levels. […] The RNA expression levels were normalized to murine Cyclophilin. The results are expressed as percent inhibition of CETP mRNA, relative to the PBS control.

CETP protein = assay: Plasma CETP protein by ELISA (Example 8); assay type: in vivo, human; details: huCETP transgenic mice, Western diet; 25 mg/kg s.c. twice per week for 2 weeks; relative to PBS control
Experimental: as §1
Plasma CETP protein levels were measured by ELISA (Alpco). […] The results are expressed as percent inhibition of CETP protein, relative to the PBS control.

CETP activity = CETP activity assay kit (Example 8); assay type: in vivo, human; details: huCETP transgenic mice, Western diet; 25 mg/kg s.c. twice per week for 2 weeks; relative to PBS control
Experimental: as §1
CETP activity levels were measured using a CETP activity assay kit (Roar Biomedical Inc., New York, N.Y.). […] The results are expressed as percent inhibition of CETP activity, relative to the PBS control.

[2] = Plasma cholesterol and triglyceride levels (Example 8); assay type: in vivo; details: huCETP transgenic mice, Western diet
Experimental: as §1
Plasma cholesterol were extracted at week 6 by the method of Bligh and Dyer (Bligh, E. G. and Dyer, W. J. Can. J. Biochem. Physiol. 37: 911-917, 1959) and measured with an Olympus clinical analyzer (Hitachi Olympus AU400e, Melville, N.Y.). HDL and LDL cholesterol were individually measured by HPLC. Triglyceride levels were measured with the use of a commercially available triglyceride kit (DCL Triglyceride Reagent; Diagnostic Chemicals Ltd., Charlottetown, Canada). The results are presented in Table 41 and are expressed in mg/dL.

[3] = Liver function, plasma ALT and AST (Example 8); assay type: in vivo; details: huCETP transgenic mice, Western diet; 25 mg/kg s.c. twice per week for 2 weeks
From the text: as §1

[4] = 25 mg/kg s.c. twice per week for 2 weeks

Substance: ISIS 349517: 5-10-5 MOE gapmer CAGCACTTTAATGCCAGTGG (sugars from the 5' end e5 d10 e5, backbone and methylation of C not given here)
- percent inhibition of CETP (human CETP mRNA; 50 nM): 100%
- percent inhibition of CETP (human CETP mRNA; 150 nM): 98%
- percent inhibition of CETP (human CETP mRNA; 300 nM): 98%
- Organ weights, Kidney [1]: 0.39
- Organ weights, Liver [1]: 1.51
- Organ weights, Spleen [1]: 0.09
- Percent inhibition of liver CETP mRNA expression (CETP mRNA): 84%
- Percent inhibition of plasma CETP protein levels (CETP protein): 96%
- Percent inhibition of CETP activity (CETP activity): 73%
- HDL % at week 0 [2, 4]: 39%
- HDL cholesterol [2, 4]: 155 mg/dL
- LDL Cholesterol [2, 4]: 48 mg/dL
- Total cholesterol [2, 4]: 212 mg/dL
- Triglycerides [2, 4]: 58 mg/dL
- increase in HDL levels compared to the PBS control ([2]; 25 mg/kg s.c. twice per week, on week 3): 30%
- Transaminase levels, ALT [3]: 26 IU/L
- Transaminase levels, AST [3]: 38 IU/L
